# Patent publication US20230416248A1, “COMPOUNDS AND USES THEREOF” (Foghorn Therapeutics Inc., priority 2020, published 2023)
# Where two headings read alike, the source gives them in different places.
# Tests used:
# BRM = biological target: T1, BRM (Homo sapiens, UniProt P51531); assay: ATPase catalytic activity of BRM, ADP-Glo in vitro biochemical assay; settings: for IC50: 30 nM BRM, 400 μM ATP; for Ratio* (BRG1 IC50 (μM) divided by BRM IC50 (μM)): selectivity ratio BRG1 IC50 / BRM IC50
# T1 construct: made in house; host or cells: High Five insect cells
# In short: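 Recombinant BRM (30 nM) hydrolysed 400 μM ATP with 20 nM salmon sperm DNA in pH 8 Tris buffer containing 20 mM MgCl2, 50 mM NaCl, 0.1% Tween-20 and 1 mM DTT, 1 h at room temperature. ADP formed was quantified by ADP-Glo luminescence.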
# BRG-1 = biological target: T2, BRG-1 (Homo sapiens, UniProt P51532); assay: ATPase catalytic activity of BRG-1, ADP-Glo in vitro biochemical assay; settings: 30 nM BRG-1, 400 μM ATP, read-out: BRG1 IC50
# T2 construct: made in house; host or cells: High Five insect cells
# In short: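 Biochemical ADP-Glo assay, BRG-1. Post-reaction: ATP depletion reagent, 40 min RT; ADP→ATP conversion/detection reagent, 60 min RT; luminescence read on plate luminometer.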
# [1] = ATPase catalytic activity, ADP-Glo
# T2 sequence (P51532 whole entry): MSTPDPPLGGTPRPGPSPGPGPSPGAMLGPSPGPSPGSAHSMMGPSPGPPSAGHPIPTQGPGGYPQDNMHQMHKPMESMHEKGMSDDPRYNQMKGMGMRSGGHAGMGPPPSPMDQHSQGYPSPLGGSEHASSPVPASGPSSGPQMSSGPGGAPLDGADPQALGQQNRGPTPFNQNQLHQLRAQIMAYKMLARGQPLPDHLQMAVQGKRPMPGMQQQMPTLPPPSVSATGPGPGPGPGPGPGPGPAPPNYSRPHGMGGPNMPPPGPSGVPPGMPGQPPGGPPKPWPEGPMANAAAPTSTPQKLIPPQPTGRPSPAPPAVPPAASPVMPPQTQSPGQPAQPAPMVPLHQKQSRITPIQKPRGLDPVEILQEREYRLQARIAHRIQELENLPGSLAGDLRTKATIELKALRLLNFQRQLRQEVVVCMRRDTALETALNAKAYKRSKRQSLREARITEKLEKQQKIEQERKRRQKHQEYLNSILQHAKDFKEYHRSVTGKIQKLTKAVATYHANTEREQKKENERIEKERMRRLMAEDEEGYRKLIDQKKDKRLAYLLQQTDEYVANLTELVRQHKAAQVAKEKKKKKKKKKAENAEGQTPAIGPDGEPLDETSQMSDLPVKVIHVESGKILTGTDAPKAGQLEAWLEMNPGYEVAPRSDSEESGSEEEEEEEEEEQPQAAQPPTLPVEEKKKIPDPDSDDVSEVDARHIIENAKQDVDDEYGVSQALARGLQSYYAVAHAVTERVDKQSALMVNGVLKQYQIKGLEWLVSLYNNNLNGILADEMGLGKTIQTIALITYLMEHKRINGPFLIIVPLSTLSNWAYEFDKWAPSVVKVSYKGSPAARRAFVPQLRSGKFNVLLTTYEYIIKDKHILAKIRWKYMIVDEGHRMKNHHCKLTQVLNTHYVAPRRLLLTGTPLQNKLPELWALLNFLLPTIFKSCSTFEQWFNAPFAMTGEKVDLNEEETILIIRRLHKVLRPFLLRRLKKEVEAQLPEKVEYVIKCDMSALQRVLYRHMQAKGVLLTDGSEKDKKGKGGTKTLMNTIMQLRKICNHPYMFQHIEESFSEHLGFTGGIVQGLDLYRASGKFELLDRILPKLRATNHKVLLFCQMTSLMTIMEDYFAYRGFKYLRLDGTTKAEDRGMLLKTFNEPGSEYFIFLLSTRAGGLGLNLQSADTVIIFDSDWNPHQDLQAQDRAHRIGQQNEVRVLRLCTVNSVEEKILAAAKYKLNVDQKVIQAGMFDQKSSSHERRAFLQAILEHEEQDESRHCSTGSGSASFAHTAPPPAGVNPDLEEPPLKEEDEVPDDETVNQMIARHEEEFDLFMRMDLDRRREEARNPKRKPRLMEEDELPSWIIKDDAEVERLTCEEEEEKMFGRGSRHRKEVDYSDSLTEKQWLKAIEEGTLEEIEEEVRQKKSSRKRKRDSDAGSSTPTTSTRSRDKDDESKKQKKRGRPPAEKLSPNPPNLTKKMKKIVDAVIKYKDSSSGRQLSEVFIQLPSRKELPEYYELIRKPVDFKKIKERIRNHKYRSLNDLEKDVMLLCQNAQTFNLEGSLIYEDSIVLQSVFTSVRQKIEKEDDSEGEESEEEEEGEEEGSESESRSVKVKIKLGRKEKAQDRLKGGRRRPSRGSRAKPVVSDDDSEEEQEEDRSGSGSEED
# T1 sequence (P51531 whole entry): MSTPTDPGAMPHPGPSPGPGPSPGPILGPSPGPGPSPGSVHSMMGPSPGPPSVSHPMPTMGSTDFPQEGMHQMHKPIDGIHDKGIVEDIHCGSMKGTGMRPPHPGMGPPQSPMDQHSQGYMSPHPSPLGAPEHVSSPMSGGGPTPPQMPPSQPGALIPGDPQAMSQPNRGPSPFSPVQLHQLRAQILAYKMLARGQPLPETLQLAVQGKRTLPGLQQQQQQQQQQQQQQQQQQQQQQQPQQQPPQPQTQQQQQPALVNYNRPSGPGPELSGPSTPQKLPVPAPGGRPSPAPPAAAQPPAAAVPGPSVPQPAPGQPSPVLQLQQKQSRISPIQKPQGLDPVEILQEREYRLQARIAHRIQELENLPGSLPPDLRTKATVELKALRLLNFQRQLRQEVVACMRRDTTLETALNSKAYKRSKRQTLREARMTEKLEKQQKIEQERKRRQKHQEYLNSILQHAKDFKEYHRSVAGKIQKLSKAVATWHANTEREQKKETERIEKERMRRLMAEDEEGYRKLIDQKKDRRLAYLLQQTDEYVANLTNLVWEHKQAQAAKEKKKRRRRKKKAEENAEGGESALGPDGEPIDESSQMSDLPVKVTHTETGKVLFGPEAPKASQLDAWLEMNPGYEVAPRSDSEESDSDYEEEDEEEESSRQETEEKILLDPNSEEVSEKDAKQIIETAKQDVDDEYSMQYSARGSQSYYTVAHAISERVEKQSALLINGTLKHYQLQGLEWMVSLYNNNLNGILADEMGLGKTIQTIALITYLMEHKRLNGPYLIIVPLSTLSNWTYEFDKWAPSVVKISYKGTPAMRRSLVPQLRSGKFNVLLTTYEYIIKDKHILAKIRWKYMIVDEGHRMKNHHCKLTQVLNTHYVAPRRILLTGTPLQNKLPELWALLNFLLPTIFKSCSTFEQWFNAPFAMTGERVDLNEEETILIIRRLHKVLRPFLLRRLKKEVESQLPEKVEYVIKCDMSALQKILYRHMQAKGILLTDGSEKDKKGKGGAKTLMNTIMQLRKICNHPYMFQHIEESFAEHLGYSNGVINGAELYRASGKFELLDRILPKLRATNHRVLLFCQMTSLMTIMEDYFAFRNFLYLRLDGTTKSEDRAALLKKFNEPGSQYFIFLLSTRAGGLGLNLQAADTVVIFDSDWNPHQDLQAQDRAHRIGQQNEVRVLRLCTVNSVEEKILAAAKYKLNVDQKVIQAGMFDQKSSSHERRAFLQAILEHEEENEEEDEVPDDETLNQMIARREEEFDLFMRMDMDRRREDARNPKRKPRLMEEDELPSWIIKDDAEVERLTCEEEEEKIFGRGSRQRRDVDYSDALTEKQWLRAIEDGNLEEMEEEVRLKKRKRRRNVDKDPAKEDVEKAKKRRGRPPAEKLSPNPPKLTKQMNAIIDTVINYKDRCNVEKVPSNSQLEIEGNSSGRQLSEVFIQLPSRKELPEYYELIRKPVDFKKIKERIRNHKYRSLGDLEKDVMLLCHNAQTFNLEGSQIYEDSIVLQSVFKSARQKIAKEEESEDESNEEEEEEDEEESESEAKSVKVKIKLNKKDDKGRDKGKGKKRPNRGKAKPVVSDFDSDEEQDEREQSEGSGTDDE
SMILES,IC50 (BRM; ADP-Glo ATPase assay),Ratio* (BRM; ratio BRG1 IC50 / BRM IC50),IC50 (BRG-1; ADP-Glo ATPase assay),IC50 (BRM; [1]),Ratio* (BRM; ratio of BRG1 IC50 to BRM IC50),IC50 (BRG-1; [1]),Ratio* (BRG1 IC50 (μM) divided by BRM IC50 (μM)) (BRM)
O=C(NCc1cc2nc(-c3cccc(N4CC(C5(F)COC5)C4)n3)ccc2cn1)c1ccc2c(c1)S(=O)(=O)CCOC2 [Compound 797],18.8 nM,10.11,190 nM,,,,
Cc1cc2c(-c3ccc4cnc(CNC(=O)c5ccc6c(c5)S(=O)(=O)CCOC6)cc4n3)cncc2n1C [Compound 657],,,,35.3 nM,5.73,202 nM,
O=C(NCc1cc2nc(-c3ccc4c(n3)N3CCOCC3C4)ccc2cn1)c1ccc2c(c1)S(=O)(=O)CCOC2 (stereo not drawn) [Compound 466],,,,122 nM,6.83,832 nM,
CC(C)(F)c1cccc(-c2ccc3cnc(CNC(=O)c4ccc5c(c4)S(=O)(=O)CCOC5)cc3n2)n1 [Compound 280],212 nM,,2170 nM,,,,10.26
O=C(NCc1cc2nc(-c3cccc(C4CC4)n3)ccc2nn1)c1ccc2c(c1)S(=O)(=O)CCOC2 [Compound 253],20.7 nM,,398 nM,,,,19.26
C/C(F)=C/c1ccc(C(=O)NCc2cc3nc(-c4cccc(N5C[C@@H](C)O[C@@H](C)C5)n4)ccc3cn2)cc1S(C)(=O)=O [Compound 475],,,,215 nM,7.79,1680 nM,
C[C@H]1COCc2ccc(C(=O)NCc3cc4nc(-c5cccc(C6CC6)n5)ccc4nn3)cc2S1(=O)=O [Compound 423],,,,15.2 nM,32.23,491 nM,
O=C(NCc1cc2nc(N3CCN(C4CC4)c4cccnc43)ccc2cn1)c1ccc2c(c1)S(=O)(=O)CCOC2 [Compound 686],,,,14.3 nM,13.91,199 nM,
O=C(NCc1cc2nc(N3CCOc4ccc(C5CC5)nc43)ccc2cn1)c1ccc2c(c1)S(=O)(=O)CCOC2 [Compound 616],,,,8.2 nM,54.03,442 nM,
O=C(NCc1cc2nc(-c3cccc(OC(F)F)n3)ccc2cn1)c1ccc2c(c1)S(=O)(=O)CCOC2 [Compound 285],19.3 nM,,497 nM,,,,25.69
O=C(NCc1cc2nc(N3CCCCc4cccnc43)ccc2cn1)c1ccc2c(c1)S(=O)(=O)CCOC2 [Compound 469],,,,2340 nM,1.82,4260 nM,
COCc1ccc(C(=O)NCc2cc3nc(-c4cccc(N5C[C@@H](C)O[C@@H](C)C5)n4)ccc3cn2)cc1S(C)(=O)=O [Compound 192],5.1 nM,,32.7 nM,,,,6.45
Cc1cc2c(nc1C1CC1)N(c1ccc3cnc(CNC(=O)c4ccc5c(c4)S(=O)(=O)CCOC5)cc3n1)CCC2 [Compound 632],,,,58.3 nM,19.38,1130 nM,
O=C(NCc1cc2nc(N3CCOc4cc(F)c(C5CC5)nc43)ccc2cn1)c1ccc2c(c1)S(=O)(=O)CCOC2 [Compound 751],36.2 nM,63.48,2300 nM,,,,
O=C(NCc1cc2nc(-c3ccnc([C@@H]4CC4(F)F)n3)ccc2cn1)c1ccc2c(c1)S(=O)(=O)CCOC2 [Compound 218],166 nM,,1620 nM,,,,9.79
CC1CCc2ccc(-c3ccc4cnc(CNC(=O)c5ccc6c(c5)S(=O)(=O)CCOC6)cc4n3)nc2N1C (stereo not drawn) [Compound 414],,,,23.3 nM,8.27,193 nM,
Cc1ccc2c(n1)N(c1ccc3cnc(CNC(=O)c4ccc5c(c4)S(=O)(=O)[C@@H](C)COC5)cc3c1)CCO2 [Compound 680],,,,32.7 nM,29.69,969 nM,
CO[C@H]1CCS(=O)(=O)c2cc(C(=O)NCc3cc4nc(-c5cccc(N6C[C@@H](C)O[C@@H](C)C6)n5)ccc4cn3)ccc2C1 [Compound 444],,,,13 nM,2.12,27.5 nM,
CS(=O)(=O)c1cc(C(=O)NCc2cc3nc(-c4cccc(N5CC[C@H]6OCC[C@@H]6C5)n4)ccc3cn2)ccc1Cl [Compound 98],33 nM,,257 nM,,,,7.80
CS(=O)(=O)c1cc(C(=O)NCc2cc3nc(-c4cccc(N5CC[C@@H]6COC[C@@H]6C5)n4)ccc3cn2)ccc1Cl [Compound 77],77.5 nM,,1070 nM,,,,13.85
O=C(NCc1cc2nc(N3CCOc4cc(C5CC5)cc(F)c43)ccc2cn1)c1ccc2c(c1)S(=O)(=O)CCOC2 [Compound 765],23.5 nM,12.08,284 nM,,,,

SMILES,IC50 (BRM; ADP-Glo ATPase assay),Ratio* (BRM; ratio BRG1 IC50 / BRM IC50),IC50 (BRG-1; ADP-Glo ATPase assay),IC50 (BRM; [1]),Ratio* (BRM; ratio of BRG1 IC50 to BRM IC50),IC50 (BRG-1; [1]),Ratio* (BRG1 IC50 (μM) divided by BRM IC50 (μM)) (BRM)
COCc1cc(F)c2c(c1)OCCN2c1ccc2cnc(CNC(=O)c3ccc4c(c3)S(=O)(=O)CCOC4)cc2n1 [Compound 796],20.8 nM,13.06,272 nM,,,,
COc1ccc2c(c1)OCCN2c1ccc2cnc(CNC(=O)c3ccc4c(c3)S(=O)(=O)CCOC4)cc2n1 [Compound 548],,,,5.4 nM,9.59,51.7 nM,
O=C(NCc1cc2nc(-c3cccc(C4CCOCC4)n3)ccc2cn1)c1ccc2c(c1)S(=O)(=O)CCOC2 [Compound 133],61.5 nM,,487 nM,,,,7.91
CCN(CC)c1cccc(-c2ccc3cnc(CNC(=O)c4ccc5c(c4)S(=O)(=O)CCOC5)cc3n2)n1 [Compound 83],8.1 nM,,135 nM,,,,16.64
C[C@@H]1CN(c2nccc(-c3ccc4cnc(CNC(=O)c5ccc6c(c5)S(=O)(=O)[C@@H](C)COC6)cc4n3)c2F)C[C@H](C)O1 [Compound 610],,,,51.3 nM,21.62,1110 nM,
COCc1ccc2c(n1)N(c1ccc3cnc(CNC(=O)c4ccc5c(c4)S(=O)(=O)CCOC5)cc3n1)CCC2 [Compound 445],,,,20.4 nM,32.29,658 nM,
COc1ccnc2c1CCCN2c1ccc2cnc(CNC(=O)c3ccc4c(c3)S(=O)(=O)CCOC4)cc2n1 [Compound 439],,,,4.4 nM,10.04,43.8 nM,
CS(=O)(=O)c1cc(C(=O)NCc2cc3nc(-c4cccc(N5CC[C@@H]6OCC[C@H]6C5)n4)ccc3cn2)ccc1C(F)F [Compound 123],23.2 nM,,290 nM,,,,12.51
O=C(NCc1cc2nc(N3CCCc4cnc(OC5CC5)cc43)ccc2cn1)c1ccc2c(c1)S(=O)(=O)CCOC2 [Compound 852],9.8 nM,17.95,176 nM,,,,
CS(=O)(=O)c1cc(C(=O)NCc2cc3nc(-c4cncc(C5CC5)n4)ccc3cn2)ccc1F [Compound 292],667 nM,,5000 nM,,,,7.50
COCc1nc2c(cc1C)CCCN2c1ccc2cnc(CNC(=O)c3ccc4c(c3)S(=O)(=O)CCOC4)cc2n1 [Compound 626],,,,20 nM,23.08,461 nM,
O=C(NCc1cc2nc(N3CCCc4ccc(OC5COC5)cc43)ccc2cn1)c1ccc2c(c1)S(=O)(=O)CCOC2 [Compound 692],,,,6 nM,14.09,84.9 nM,
Cc1cc2ccc(-c3ccc4cnc(CNC(=O)c5ccc6c(c5)S(=O)(=O)CCOC6)cc4n3)nc2n1C [Compound 85],15.7 nM,,129 nM,,,,8.19
COc1c(C)cnc2c1CCCN2c1ccc2cnc(CNC(=O)c3ccc4c(c3)S(=O)(=O)CCOC4)cc2n1 [Compound 629],,,,10 nM,8.49,85 nM,
CNc1cccc(-c2ccc3cnc(CNC(=O)c4ccc5c(c4)S(=O)(=O)CCOC5)cc3n2)n1 [Compound 274],69.6 nM,,589 nM,,,,8.46
CS(=O)(=O)c1cncc(C(=O)NCc2cc3nc(-c4cncc(C5CC5)n4)ccc3cn2)c1 [Compound 306],855 nM,,4250 nM,,,,4.98
Cn1ccc2ccc(-c3ccc4cnc(CNC(=O)c5ccc6c(c5)S(=O)(=O)CCOC6)cc4n3)nc21 [Compound 136],33.4 nM,,239 nM,,,,7.15
Cc1ccc2c(n1)CN(c1ccc3cnc(CNC(=O)c4ccc5c(c4)S(=O)(=O)CCOC5)cc3n1)CC2 [Compound 408],,,,476 nM,4.77,2270 nM,
[2H]C1([2H])OC([2H])([2H])C([2H])([2H])S(=O)(=O)c2cc(C(=O)NCc3cc4nc(N5CCOc6ccc(C(F)F)nc65)ccc4cn3)ccc21 [Compound 807],19.1 nM,25.47,486 nM,,,,
CCO[C@@H](C)c1ccc2c(n1)N(c1ccc3cnc(CNC(=O)c4ccc5c(c4)S(=O)(=O)CCOC5)cc3n1)CCC2 [Compound 635],,,,168 nM,15.08,2530 nM,
CCOc1cccc(-c2ccc3cnc(CNC(=O)c4cc(F)c5c(c4)S(=O)(=O)[C@@H](C)COC5)cc3n2)n1 [Compound 453],,,,27.4 nM,21.75,595 nM,
